Data as given in patent US8546409B2, “Methods of treatment for solid tumors” (priority 2009, dated 2013).

Tests used:
Format in all cases: cell-based
[1] = test system: NCI panel cancer cell lines; assay: NCI panel of tumor cell assays, summary over cell lines; settings: all NCI panel cell lines
Description: Compound I has also been tested in a battery of tumor cell assays known as the NCI panel. […] Using this measure, 1.8% of cell lines were particularly sensitive to Compound B at this level, while 39% were particularly sensitive to Compound I at the same concentration. […] Loss of PTEN activity often occurs in cancers, and enhances the sensitivity of a tumor to PI3K inhibitors. […] The following Table summarizes the cell lines found to be sensitive to Compound I and the known mutations in those cell lines.

A549 = assay: NCI panel growth inhibition, A549; settings: Homo sapiens, Non-Small Cell Lung Cancer
Description: (§1) Compound I has also been tested in a battery of tumor cell assays known as the NCI panel.

EKVX = assay: NCI panel growth inhibition, EKVX; settings: Homo sapiens, Non-Small Cell Lung Cancer
Description: as §1

HOP-62 = assay: NCI panel growth inhibition, HOP-62; settings: Homo sapiens, Non-Small Cell Lung Cancer
Description: as §1

HOP-92 = assay: NCI panel growth inhibition, HOP-92; settings: Homo sapiens, Non-Small Cell Lung Cancer
Description: as §1

NCI-H226 = assay: NCI panel growth inhibition, NCI-H226; settings: Homo sapiens, Non-Small Cell Lung Cancer
Description: as §1

NCI-H23 = assay: NCI panel growth inhibition, NCI-H23; settings: Homo sapiens, Non-Small Cell Lung Cancer
Description: as §1

NCI-H322M = assay: NCI panel growth inhibition, NCI-H322M; settings: Homo sapiens, Non-Small Cell Lung Cancer
Description: as §1

NCI-H460 = assay: NCI panel growth inhibition, NCI-H460; settings: Homo sapiens, Non-Small Cell Lung Cancer
Description: as §1

NCI-H522 = assay: NCI panel growth inhibition, NCI-H522; settings: Homo sapiens, Non-Small Cell Lung Cancer
Description: as §1

COLO 205 = assay: NCI panel growth inhibition, COLO 205; settings: Homo sapiens, Colon Cancer
Description: as §1

HCC-2998 = assay: NCI panel growth inhibition, HCC-2998; settings: Homo sapiens, Colon Cancer
Description: as §1

HCT-116 = assay: NCI panel growth inhibition, HCT-116; settings: Homo sapiens, Colon Cancer
Description: as §1

HCT-15 = assay: NCI panel growth inhibition, HCT-15; settings: Homo sapiens, Colon Cancer
Description: as §1

HT29 = assay: NCI panel growth inhibition, HT29; settings: Homo sapiens, HT-29, Colon Cancer
Description: as §1

KM12 = assay: NCI panel growth inhibition, KM12; settings: Homo sapiens, Colon Cancer
Description: as §1

SW-620 = assay: NCI panel growth inhibition, SW-620; settings: Homo sapiens, Colon Cancer
Description: as §1

SF-268 = assay: NCI panel growth inhibition, SF-268; settings: Homo sapiens, CNS Cancer
Description: as §1

SF-295 = assay: NCI panel growth inhibition, SF-295; settings: Homo sapiens, CNS Cancer
Description: as §1

SF-539 = assay: NCI panel growth inhibition, SF-539; settings: Homo sapiens, CNS Cancer
Description: as §1

SNB-19 = assay: NCI panel growth inhibition, SNB-19; settings: Homo sapiens, CNS Cancer
Description: as §1

SNB-75 = assay: NCI panel growth inhibition, SNB-75; settings: Homo sapiens, CNS Cancer
Description: as §1

U251 = assay: NCI panel growth inhibition, U251; settings: Homo sapiens, U-251, CNS Cancer
Description: as §1

LOX IMVI = assay: NCI panel growth inhibition, LOX IMVI; settings: Homo sapiens, Melanoma
Description: as §1

MALME-3M = assay: NCI panel growth inhibition, MALME-3M; settings: Homo sapiens, Melanoma
Description: as §1

M14 = assay: NCI panel growth inhibition, M14; settings: Homo sapiens, Melanoma
Description: as §1

SK-MEL-2 = assay: NCI panel growth inhibition, SK-MEL-2; settings: Homo sapiens, Melanoma
Description: as §1

SK-MEL-28 = assay: NCI panel growth inhibition, SK-MEL-28; settings: Homo sapiens, Melanoma
Description: as §1

SK-MEL-5 = assay: NCI panel growth inhibition, SK-MEL-5; settings: Homo sapiens, Melanoma
Description: as §1

UACC-257 = assay: NCI panel growth inhibition, UACC-257; settings: Homo sapiens, Melanoma
Description: as §1

UACC-62 = assay: NCI panel growth inhibition, UACC-62; settings: Homo sapiens, Melanoma
Description: as §1

IGROV1 = assay: NCI panel growth inhibition, IGROV1; settings: Homo sapiens, IGROV-1, Ovarian
Description: as §1

OVCAR-3 = assay: NCI panel growth inhibition, OVCAR-3; settings: Homo sapiens, Ovarian
Description: as §1

OVCAR-4 = assay: NCI panel growth inhibition, OVCAR-4; settings: Homo sapiens, Ovarian
Description: as §1

OVCAR-5 = assay: NCI panel growth inhibition, OVCAR-5; settings: Homo sapiens, Ovarian
Description: as §1

OVCAR-8 = assay: NCI panel growth inhibition, OVCAR-8; settings: Homo sapiens, Ovarian
Description: as §1

SK-OV-3 = assay: NCI panel growth inhibition, SK-OV-3; settings: Homo sapiens, Ovarian
Description: as §1

786-0 = assay: NCI panel growth inhibition, 786-0; settings: Homo sapiens, Renal
Description: as §1

A498 = assay: NCI panel growth inhibition, A498; settings: Homo sapiens, Renal
Description: as §1

ACHN = assay: NCI panel growth inhibition, ACHN; settings: Homo sapiens, Renal
Description: as §1

CAKI-1 = assay: NCI panel growth inhibition, CAKI-1; settings: Homo sapiens, Renal
Description: as §1

RXF 393 = assay: NCI panel growth inhibition, RXF 393; settings: Homo sapiens, Renal
Description: as §1

SN12C = assay: NCI panel growth inhibition, SN12C; settings: Homo sapiens, Renal
Description: as §1

TK-10 = assay: NCI panel growth inhibition, TK-10; settings: Homo sapiens, Renal
Description: as §1

UO-31 = assay: NCI panel growth inhibition, UO-31; settings: Homo sapiens, Renal
Description: as §1

PC-3 = assay: NCI panel growth inhibition, PC-3; settings: Homo sapiens, Prostate
Description: as §1

DU-145 = assay: NCI panel growth inhibition, DU-145; settings: Homo sapiens, Prostate
Description: as §1

MCF7 = assay: NCI panel growth inhibition, MCF7; settings: Homo sapiens, Breast Cancer
Description: as §1

ADR-RES = assay: NCI panel growth inhibition, ADR-RES; settings: Breast Cancer
Description: as §1

MDA-MB-231 = assay: NCI panel growth inhibition, MDA-MB-231; settings: Homo sapiens, Breast Cancer
Description: as §1

HS 578T = assay: NCI panel growth inhibition, HS 578T; settings: Homo sapiens, Breast Cancer
Description: as §1

MDA-MB-435 = assay: NCI panel growth inhibition, MDA-MB-435; settings: Homo sapiens, Breast Cancer
Description: as §1

BT-549 = assay: NCI panel growth inhibition, BT-549; settings: Homo sapiens, Breast Cancer
Description: as §1

T-47D = assay: NCI panel growth inhibition, T-47D; settings: Homo sapiens, T47D, Breast Cancer
Description: as §1

MDA-MB-468 = assay: NCI panel growth inhibition, MDA-MB-468; settings: Homo sapiens, Breast Cancer
Description: as §1

Structure (SMILES): CC[C@H](Nc1ncnc2[nH]cnc12)c1nc2cccc(F)c2c(=O)n1-c1ccccc1 [Compound B, reference compound]
- Cell lines particularly sensitive (GI50 of 2 micromolar or less) [1]: 1.8%
- GI50 (A549): 50.4 µM
- GI50 (EKVX): 28.2 µM
- GI50 (HOP-62): 39.7 µM
- GI50 (HOP-92): 34.8 µM
- GI50 (NCI-H226): 100 µM
- GI50 (NCI-H23): 100 µM
- GI50 (NCI-H322M): 32.2 µM
- GI50 (NCI-H460): 34.7 µM
- GI50 (NCI-H522): 52.7 µM
- GI50 (COLO 205): 30.1 µM
- GI50 (HCC-2998): 53.3 µM
- GI50 (HCT-116): 54.3 µM
- GI50 (HCT-15): 48.4 µM
- GI50 (HT29): 39.1 µM
- GI50 (KM12): 54.1 µM
- GI50 (SW-620): 86.4 µM
- GI50 (SF-268): 29.8 µM
- GI50 (SF-295): 8.18 µM
- GI50 (SF-539): 28.6 µM
- GI50 (SNB-19): 54.8 µM
- GI50 (SNB-75): 2.96 µM
- GI50 (U251): 70.4 µM
- GI50 (LOX IMVI): 31.1 µM
- GI50 (MALME-3M): 31.6 µM
- GI50 (M14): 58.4 µM
- GI50 (SK-MEL-2): 100 µM
- GI50 (SK-MEL-28): 38.6 µM
- GI50 (SK-MEL-5): 32.9 µM
- GI50 (UACC-257): 33.5 µM
- GI50 (UACC-62): 4.2 µM
- GI50 (IGROV1): 3.54 µM
- GI50 (OVCAR-3): 15.5 µM
- GI50 (OVCAR-4): 100 µM
- GI50 (OVCAR-5): 40.1 µM
- GI50 (OVCAR-8): 96 µM
- GI50 (SK-OV-3): 13.8 µM
- GI50 (786-0): 5.48 µM
- GI50 (A498): 2.38 µM
- GI50 (ACHN): 24.4 µM
- GI50 (CAKI-1): 13.4 µM
- GI50 (RXF 393): 74.2 µM
- GI50 (SN12C): 11 µM
- GI50 (TK-10): 31.7 µM
- GI50 (UO-31): 5.32 µM
- GI50 (PC-3): 12 µM
- GI50 (DU-145): 43.8 µM
- GI50 (MCF7): 7.08 µM
- GI50 (ADR-RES): 77.9 µM
- GI50 (MDA-MB-231): 100 µM
- GI50 (HS 578T): 6.91 µM
- GI50 (MDA-MB-435): 16.4 µM
- GI50 (BT-549): 14.3 µM
- GI50 (T-47D): 3.18 µM
- GI50 (MDA-MB-468): 13.6 µM
